# Measured values published in ChEMBL document CHEMBL3286094, “Synthesis and biological evaluation of novel bisbenzimidazoles as Escherichia coli topoisomerase IA inhibitors and potential antibacterial agents” (J Med Chem, 2014).
# Active and inactive are the calls of the source. The rule behind the calls is not given here.
# Columns and labels:
# Escherichia coli [1] = assay: Bactericidal activity against cefazolinl/ampicillin/piperacillin/cefuroxime/cefepime/cefotaxime/tetracycline/trimethoprim-resistant Escherichia coli KK16 isolated from water source by agar plating method
# Escherichia coli [2] = assay: Antibacterial activity against chloroamphenicol/ampicillin/kanamycin/trimethoprim/ciprofloxacin/nalidixic acid-resistant Escherichia coli 85 assessed as growth inhibition after 18 to 24 hrs by broth microdilution method; type: functional
# Escherichia coli [3] = assay: Bactericidal activity against ampicillin/tetracycline-resistant Escherichia coli IP18 isolated from water source by agar plating method
# Escherichia coli [4] = assay: Antibacterial activity against tetracycline/trimethoprim-resistant Escherichia coli IST isolated from water source assessed as growth inhibition after 18 to 24 hrs by broth microdilution method
# Escherichia coli [5] = assay: Bactericidal activity against chloramphenicol/ampicillin/kanamycin/trimethoprim/ciprofloxacin/nalidixic acid-resistant Escherichia coli 151 by agar plating method; type: functional
# Escherichia coli [6] = assay: Antibacterial activity against Escherichia coli ATCC 25922 assessed as growth inhibition after 18 to 24 hrs by broth microdilution method; type: functional
# Escherichia coli [7] = assay: Antibacterial activity against ampicillin/tetracycline/piperacillin-resistant Escherichia coli WB31 isolated from water source assessed as growth inhibition after 18 to 24 hrs by broth microdilution method
# Escherichia coli [8] = assay: Bactericidal activity against chloramphenicol/ampicillin/kanamycin/trimethoprim/ciprofloxacin/nalidixic acid-resistant Escherichia coli 132 by agar plating method; type: functional
# Escherichia coli [9] = assay: Antibacterial activity against ampicillin/tetracycline/gentamicin-resistant Escherichia coli 451 assessed as growth inhibition after 18 to 24 hrs by broth microdilution method; type: functional
# Escherichia coli [10] = assay: Inhibition of Escherichia coli DNA gyrase using relaxed pHOT1 plasmid DNA as substrate assessed as inhibition of DNA supercoiling up to 100 uM after 30 mins by agarose gel electrophoresis
# Homo sapiens = species on record: Homo sapiens; assay: Inhibition of human DNA topoisomerase-1B using supercoiled pHOT1 plasmid DNA as substrate assessed as inhibition of DNA relaxation at 100 uM after 30 mins by agarose gel electrophoresis
# Escherichia coli [11] = assay: Antibacterial activity against ampicillin/trimethoprim/nalidixic acid-resistant Escherichia coli 118 assessed as growth inhibition after 18 to 24 hrs by broth microdilution method; type: functional
# Escherichia coli [12] = assay: Bactericidal activity against ampicillin/chloramphenicol/ciprofloxacin/gentamicin/tetracycline-resistant Escherichia coli 401 by agar plating method; type: functional
# Escherichia coli [13] = assay: Antibacterial activity against gentamicin/kanamycin/tetracycline/nalidixic acid-resistant Escherichia coli 360 assessed as growth inhibition after 18 to 24 hrs by broth microdilution method; type: functional
# Escherichia coli [14] = assay: Bactericidal activity against ampicillin/trimethoprim/piperacillin-resistant Escherichia coli MKNJ isolated from water source by agar plating method
# Escherichia coli [15] = assay: Bactericidal activity against ampicillin/kanamycin/trimethoprim/tetracyclin/ciprofloxacin/nalidixic acid-resistant Escherichia coli 81 by agar plating method; type: functional
# Escherichia coli [16] = assay: Antibacterial activity against chloramphenicol/ampicillin/kanamycin/trimethoprim/ciprofloxacin/nalidixic acid-resistant Escherichia coli 151 assessed as growth inhibition after 18 to 24 hrs by broth microdilution method; type: functional
# Escherichia coli [17] = assay: Antibacterial activity against ampicillin/ciprofloxacin/gentamicin/tetracycline-resistant Escherichia coli 555 assessed as growth inhibition after 18 to 24 hrs by broth microdilution method; type: functional
# Escherichia coli [18] = assay: Antibacterial activity against ampicillin/trimethoprim/cefazolinl/piperacillin/cefuroxime/cefoxitine/cefepime/cefotaxime-resistant Escherichia coli KP21 isolated from water source assessed as growth inhibition after 18 to 24 hrs by broth microdilution method
# Escherichia coli [19] = assay: Bactericidal activity against ciprofloxacin-resistant Escherichia coli 72 by agar plating method; type: functional
# Escherichia coli [20] = assay: Bactericidal activity against ampicillin/trimethoprim/cefazolinl/piperacillin/cefuroxime/cefoxitine/cefepime/cefotaxime-resistant Escherichia coli KP21 isolated from water source by agar plating method
# Escherichia coli [21] = assay: Bactericidal activity against ampicillin/chloramphenicol/tetracycline/trimethoprim/ciprofloxacin-resistant Escherichia coli KK45 isolated from water source by agar plating method
# Escherichia coli [22] = assay: Bactericidal activity against multidrug-resistant Escherichia coli IS 54 isolated from water source by agar plating method; settings: IS 54, Water
# Escherichia coli [23] = assay: Antibacterial activity against multidrug-resistant Escherichia coli IS 54 isolated from water source assessed as growth inhibition after 18 to 24 hrs by broth microdilution method; settings: IS 54, Water
# Escherichia coli [24] = assay: Antibacterial activity against cefazolinl/ampicillin/piperacillin/cefuroxime/cefepime/cefotaxime/tetracycline/ciprofloxacin-resistant Escherichia coli NG3 isolated from water source assessed as growth inhibition after 18 to 24 hrs by broth microdilution method
# Escherichia coli [25] = assay: Antibacterial activity against ampicillin/tetracycline-resistant Escherichia coli IP18 isolated from water source assessed as growth inhibition after 18 to 24 hrs by broth microdilution method
# Escherichia coli [26] = assay: Antibacterial activity against ampicillin/chloramphenicol/tetracycline/trimethoprim/ciprofloxacin-resistant Escherichia coli KK45 isolated from water source assessed as growth inhibition after 18 to 24 hrs by broth microdilution method
# Escherichia coli [27] = assay: Bactericidal activity against Escherichia coli DH5[alpha] by agar plating method; type: functional
# Escherichia coli [28] = assay: Bactericidal activity against ampicillin/trimethoprim/nalidixic acid-resistant Escherichia coli 118 by agar plating method; type: functional
# Escherichia coli [29] = assay: Bactericidal activity against ampicillin/tetracycline/gentamicin-resistant Escherichia coli 451 by agar plating method; type: functional
# Escherichia coli [30] = assay: Antibacterial activity against ampicillin/trimethoprim/piperacillin-resistant Escherichia coli MKNJ isolated from water source assessed as growth inhibition after 18 to 24 hrs by broth microdilution method
# Escherichia coli [31] = assay: Bactericidal activity against ampicillin/ciprofloxacin/gentamicin/tetracycline-resistant Escherichia coli 555 by agar plating method; type: functional
# Escherichia coli [32] = assay: Bactericidal activity against Escherichia coli ATCC 25922 by agar plating method; type: functional
# Escherichia coli [33] = assay: Bactericidal activity against chloramphenicol/ampicillin/trimethoprim/ciprofloxacin/nalidixic acid-resistant Escherichia coli 59 by agar plating method; type: functional
# Escherichia coli [34] = assay: Antibacterial activity against chloramphenicol/ampicillin/trimethoprim/ciprofloxacin/nalidixic acid-resistant Escherichia coli 59 assessed as growth inhibition after 18 to 24 hrs by broth microdilution method; type: functional
# Escherichia coli [35] = assay: Antibacterial activity against chloramphenicol/ampicillin/kanamycin/trimethoprim/ciprofloxacin/nalidixic acid-resistant Escherichia coli 132 assessed as growth inhibition after 18 to 24 hrs by broth microdilution method; type: functional
compound,measurement,setting,value
CCOc1ccc(-c2nc3ccc(-c4nc5ccc(N6CCN(CC)CC6)cc5[nH]4)cc3[nH]2)cc1,MBC,Escherichia coli [1],2 µg/mL
same,MIC50,Escherichia coli [2],4 µg/mL
same,MIC90,Escherichia coli [2],6.9 µg/mL
same,MBC,Escherichia coli [3],8 µg/mL
same,MIC50,Escherichia coli [4],4 µg/mL
same,MIC90,Escherichia coli [4],3.7 µg/mL
same,MBC,Escherichia coli [5],8 µg/mL
same,MIC50,Escherichia coli [6],1.78 µg/mL
same,MIC90,Escherichia coli [6],3.1 µg/mL
same,MIC50,Escherichia coli [7],4 µg/mL
same,MIC90,Escherichia coli [7],7.2 µg/mL
same,MBC,Escherichia coli [8],8 µg/mL
same,MIC50,Escherichia coli [9],2 µg/mL
same,MIC90,Escherichia coli [9],3.6 µg/mL
same,inhibition,Escherichia coli [10],inactive
same,inhibition,Homo sapiens,Active
same,MIC50,Escherichia coli [11],1 µg/mL
same,MIC90,Escherichia coli [11],1.4 µg/mL
same,MBC,Escherichia coli [12],4 µg/mL
same,MIC50,Escherichia coli [13],3 µg/mL
same,MIC90,Escherichia coli [13],58.1 µg/mL
same,MBC,Escherichia coli [14],8 µg/mL
same,MBC,Escherichia coli [15],8 µg/mL
same,MIC50,Escherichia coli [16],4 µg/mL
same,MIC90,Escherichia coli [16],6.8 µg/mL
same,MIC50,Escherichia coli [17],8 µg/mL
same,MIC90,Escherichia coli [17],13.9 µg/mL
same,MIC50,Escherichia coli [18],4 µg/mL
same,MIC90,Escherichia coli [18],6.8 µg/mL
same,MBC,Escherichia coli [19],8 µg/mL
same,MBC,Escherichia coli [20],8 µg/mL
same,MBC,Escherichia coli [21],8 µg/mL
same,MBC,Escherichia coli [22],8 µg/mL
same,MIC50,Escherichia coli [23],4 µg/mL
same,MIC90,Escherichia coli [23],7.1 µg/mL
same,MIC50,Escherichia coli [24],4 µg/mL
same,MIC90,Escherichia coli [24],7.7 µg/mL
same,MIC50,Escherichia coli [25],4 µg/mL
same,MIC90,Escherichia coli [25],7.6 µg/mL
same,MIC50,Escherichia coli [26],4 µg/mL
same,MIC90,Escherichia coli [26],7.5 µg/mL
same,MBC,Escherichia coli [27],1 µg/mL
same,MBC,Escherichia coli [28],2 µg/mL
same,MBC,Escherichia coli [29],4 µg/mL
same,MIC50,Escherichia coli [30],4 µg/mL
same,MIC90,Escherichia coli [30],7.6 µg/mL
same,MBC,Escherichia coli [31],16 µg/mL
same,MBC,Escherichia coli [32],4 µg/mL
same,MBC,Escherichia coli [33],8 µg/mL
same,MIC50,Escherichia coli [34],4 µg/mL
same,MIC90,Escherichia coli [34],7.4 µg/mL
same,MIC50,Escherichia coli [35],4 µg/mL
same,MIC90,Escherichia coli [35],7.2 µg/mL
COc1ccc(-c2nc3ccc(-c4nc5ccc(N6CCN(c7ncccn7)CC6)cc5[nH]4)cc3[nH]2)cc1OC,MBC,Escherichia coli [1],32 µg/mL
same,MIC50,Escherichia coli [2],32 µg/mL
same,MIC90,Escherichia coli [2],55.8 µg/mL
same,MBC,Escherichia coli [3],32 µg/mL
same,MIC50,Escherichia coli [4],16 µg/mL
same,MIC90,Escherichia coli [4],30.8 µg/mL
same,MBC,Escherichia coli [5],32 µg/mL
same,MIC50,Escherichia coli [6],32 µg/mL
same,MIC90,Escherichia coli [6],49 µg/mL
same,MIC50,Escherichia coli [7],16 µg/mL
same,MIC90,Escherichia coli [7],30.2 µg/mL
same,MBC,Escherichia coli [8],128 µg/mL
same,MIC50,Escherichia coli [9],16 µg/mL
same,MIC90,Escherichia coli [9],28.8 µg/mL
same,inhibition,Escherichia coli [10],inactive
same,inhibition,Homo sapiens,Active
same,MIC50,Escherichia coli [11],4 µg/mL
same,MIC90,Escherichia coli [11],7.4 µg/mL
same,MBC,Escherichia coli [12],32 µg/mL
same,MIC50,Escherichia coli [13],> 128 µg/mL
same,MBC,Escherichia coli [14],64 µg/mL
same,MBC,Escherichia coli [15],32 µg/mL
same,MIC50,Escherichia coli [16],16 µg/mL
same,MIC90,Escherichia coli [16],30.4 µg/mL
same,MIC50,Escherichia coli [17],32 µg/mL
same,MIC90,Escherichia coli [17],59.4 µg/mL
same,MIC50,Escherichia coli [18],32 µg/mL
same,MIC90,Escherichia coli [18],60.5 µg/mL
same,MBC,Escherichia coli [19],32 µg/mL
same,MBC,Escherichia coli [20],64 µg/mL
same,MBC,Escherichia coli [21],32 µg/mL
same,MBC,Escherichia coli [22],64 µg/mL
same,MIC50,Escherichia coli [23],32 µg/mL
same,MIC90,Escherichia coli [23],61.6 µg/mL
same,MIC50,Escherichia coli [24],16 µg/mL
same,MIC90,Escherichia coli [24],30.6 µg/mL
same,MIC50,Escherichia coli [25],16 µg/mL
same,MIC90,Escherichia coli [25],30.8 µg/mL
same,MIC50,Escherichia coli [26],16 µg/mL
same,MIC90,Escherichia coli [26],30.2 µg/mL
same,MBC,Escherichia coli [27],4 µg/mL
same,MBC,Escherichia coli [28],8 µg/mL
same,MBC,Escherichia coli [29],32 µg/mL
same,MIC50,Escherichia coli [30],32 µg/mL
same,MIC90,Escherichia coli [30],61.4 µg/mL
same,MBC,Escherichia coli [31],64 µg/mL
same,MBC,Escherichia coli [32],64 µg/mL
same,MBC,Escherichia coli [33],32 µg/mL
same,MIC50,Escherichia coli [34],16 µg/mL
same,MIC90,Escherichia coli [34],30.2 µg/mL
same,MIC50,Escherichia coli [35],64 µg/mL
same,MIC90,Escherichia coli [35],122 µg/mL
